Source: patent US10765616B2, “Oral formulation of polyglucosamine derivatives in combination with a non-fermentable sugar” (SYNEDGEN, INC., priority 2013, dated 2020)

Columns and labels:
S. mutans = experiment: PAAG and sorbitol combination bactericidal assay (viable plate counts); assay type: cell-based, Streptococcus mutans; conditions: sorbitol 0-25% w/v, 30 minutes
Protocol: A range of sorbitol concentrations (0-25% w/v) was mixed with a range of PAAG concentrations (4-32 μg/mL, 86 kDa, 30% functionalized). S. mutans was exposed to each for 30 minutes before being neutralized with D/E neutralization broth, then diluted and plated for measurement of viable plate counts (CFU).

A431 epithelial cells = system: A431 epithelial cells
Protocol: Human epithelial cell monolayers of A431 (ATCC CRL-1555) were seeded in tissue culture treated 96-well plates at a density of 2×10^4 cells/well in DMEM media supplemented with 10% FBS, 1% Penicillin-Streptomycin, and 1% Amphotericin B. Seeded cells were incubated at 37° C. with 5% CO2 for 48 hours. The media was removed and replaced with serum-free, antimicrobial-free media and rinsed one time for 30 seconds with PAAG Oral Formulation H, other oral products (Biotene, Corsodyl, Peroxyl, or Listerine), 32 μg/mL PAAG (30% functionalized, 86 kDa) and other active ingredients (0.029% lactoferrin, 0.2% chlorhexidine gluconate, 1.5% hydrogen peroxide, or 20% alcohol). Epithelial cell viability was determined by ATPLite Luminescence ATP Detection Assay System (PerkinElmer). Testing was done in duplicate.
Epithelial cell viability was compared between PAAG and other oral active ingredients and oral rinse products. Human epithelial cell monolayers were rinsed once for 30 seconds with each treatment. Following treatment, the epithelial cells were evaluated with ATP LITE Luminecence assay that measured viability via ATP. The data was normalized to untreated cells to compare percent survival (FIG. 4). […] The cells were rinsed once with PAAG Oral Formulation H, other oral rinse products (Biotene, Corsodyl, Peroxyl, or Listerine), oral products active ingredients (0.0032% PAAG, 0.029% lactoferrin (LF), 0.2% chlorhexidine (CHG), 1.5% hydrogen peroxide, or 20% alcohol). PAAG Oral Formulation H contains sorbitol (17.5%), glycerin (10%), xylitol (2.5%), polysorbate 20 (1.5%), peppermint oil (0.2%), benzoic acid (0.3%), sodium fluoride (0.5%), and PAAG (0.0032%). Epithelial cell viability was determined by ATPLite Luminescence ATP Detection Assay System (Perkin Elmer) and compared to media rinsed cells.

S. mutans biofilms [1] = experiment: Comparative biofilm reduction study of oral rinses and active ingredients (MBEC pegs); assay type: cell-based, Streptococcus mutans; conditions: 72 h S. mutans biofilms, treated 2 minutes twice (6-hour interval), vs water control
Protocol: Biofilms of S. mutans were grown on hydroxyapatite-coated pegs according to MBEC Assay™ methods for 72 hours, and then treated with the oral rinses or a water control. The corresponding active ingredients were also evaluated. The biofilms were exposed for 2-minutes, twice in a 6-hour interval to evaluate biofilm removal. Following treatment, biofilms were rinsed, fixed, and stained with 0.4% Crystal Violet, and remaining biofilm was quantitated via CFU or OD595 (Beenken and Smeltzer, 2003). Biofilms were analyzed in triplicate in at least 3 independent assays. Ratios were averaged from all assays and the percent biofilm reduced and standard error compared to water control is shown.

S. mutans biofilms [2] = experiment: MBEC peg biofilm biomass reduction assay of active ingredients (twice daily, OD595); assay type: cell-based, Streptococcus mutans; conditions: 2 minutes, 8-hour interval, 32 μg/mL PAAG, 1.5% hydrogen peroxide, alcohol, lactoferrin, chlorhexidine
Protocol: The S. mutans biofilms were grown according to MBEC™ for High-throughput Screening methods (Innovotech) on a hydroxyapatite-coated peg lid placed in trough containing BHI media supplemented with 1% sucrose rocking for 72 hours. The pegs were treated twice daily with PAAG (30% functionalized, 86 kD) active ingredients (FIG. 9) at 8-hour intervals for 2-minutes. The biofilms were rinsed in PBS, and the pegs were removed and placed into 200 μl 95% ethanol each for 2 minutes to fix the biofilms. The MBEC-HTP biofilms were stained with 150 μl of 3% Crystal Violet dye each for 2 minutes, and rinsed five times with PBS. It was noted that chlorhexidine appears to “fix” the biofilm to the pegs. The bacteria may or may not be viable because OD measured biofilm biomass, not viable CFUs. The stained and rinsed MBEC-HTP biofilms were then placed in 150 μL ethanol for 1-minute to remove the dye/biofilm. Then 100 μL of the ethanol and dyed biofilm suspension was placed into a 96-well plate and the OD595 was measured to quantify the remaining stained biofilm biomass.

[3] = active ingredients at the concentration printed in the row or sentence

Row | Compound | epithelial cell viability (A431 epithelial cells) | Percent (%) Biomass Reduced (S. mutans biofilms [1]; [3]) [%] | reduction in S. mutans biofilm biomass compared to water control (S. mutans biofilms [2]) | other results
1 | OC[C@@H](O)[C@@H](O)[C@H](O)[C@@H](O)CO [sorbitol] | – | – | – | effect of sorbitol alone on bacterial viability (S. mutans): did not affect bacterial viability
2 | OO [hydrogen peroxide] | maintain epithelial cell viability | 36.9±3.8 | significant reduction | Percent (%) Biomass Reduced (S. mutans biofilms [1]; active ingredients at the concentration given, listed as H2O2): 36.9 ± 3.8%
3 | poly (acetyl, arginyl) glucosamine [PAAG] | maintain epithelial cell viability | – | – | cytotoxicity to epithelial cells compared to other oral rinse products (A431 epithelial cells): least cytotoxic
4 | CCO [Alcohol, alcohol] | – | 39.9 ± 3.9 | significant reduction | Percent (%) Biomass Reduced (S. mutans biofilms [1]; active ingredients at the concentration printed in the row or sentence, listed as alcohol): 39.9±3.9%
5 | [H]/N=C(\N/C(=N/[H])NCCCCCCNC(=N)NC(=N)Nc1ccc(Cl)cc1)Nc1ccc(Cl)cc1 [Chlorhexidine, chlorhexidine gluconate] | – | 17.1 ± 4.5 | did not significantly reduce | Percent (%) Biomass Reduced (S. mutans biofilms [1]; active ingredients at the concentration printed in the row or sentence, listed as Chlorhexidine gluconate): 17.1±4.5%
